Measurements reported in paper PMC11976443 (2025).

Tested on: 5' FAM-CoA-seq10 aptamer (DNA, aptamer) ATGCAGTCGGCGTCGGACAGGCAAAGGGGAGAGTGATTATAATCACTCGGGACATGGGATCTGTCCGACGATGTAACGCTTCAC
Assay: fluorescence strand displacement
Conditions: apparent; 50 nM aptamer, 1:5 3'-BHQ1 capture strand CTGTCCGACGCCGAC displaced

`CC(C)(COP(=O)(O)OP(=O)(O)OC[C@H]1O[C@@H](n2cnc3c(N)ncnc32)[C@H](O)[C@@H]1OP(=O)(O)O)[C@@H](O)C(=O)NCCC(=O)NCCS` gave a Kd of 1133 µM.
